For data set [1], the target named is T1, Sphingosine 1-phosphate receptor 3 (Homo sapiens, UniProt Q99500). The data set is described as follows: Agonist activity at human S1P3 receptor transfected in CHO cells incubated for 10 to 15 mins prior to GTPgamma35S addition measured after 120 mins by GTPgamma35S binding assay. The class given is functional, cell-based.
In data set [2] the target is T2, Sphingosine 1-phosphate receptor 1 (Homo sapiens, UniProt P21453). The data set is described as follows: Agonist activity at human S1P1 receptor transfected in CHO cells at 10 uM incubated for 10 to 15 mins prior to GTPgamma35S addition measured after 120 mins by GTPgamma35S binding assay relative to S1P. The format is functional, cell-based. On the technique in general: GTPγS resists hydrolysis and so accumulates on activated G proteins.
T2 sequence (P21453 whole entry): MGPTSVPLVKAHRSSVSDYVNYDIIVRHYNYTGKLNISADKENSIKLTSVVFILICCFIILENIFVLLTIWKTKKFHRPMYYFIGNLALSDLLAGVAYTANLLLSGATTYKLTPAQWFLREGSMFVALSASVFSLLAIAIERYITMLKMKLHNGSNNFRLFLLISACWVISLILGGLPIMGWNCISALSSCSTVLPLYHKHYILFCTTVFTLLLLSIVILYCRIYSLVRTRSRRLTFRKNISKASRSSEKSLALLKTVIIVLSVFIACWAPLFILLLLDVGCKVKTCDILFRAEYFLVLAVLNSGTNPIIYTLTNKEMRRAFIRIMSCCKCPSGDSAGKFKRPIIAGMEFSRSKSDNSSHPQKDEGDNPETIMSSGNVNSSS

In data set [3] the target is T2, Sphingosine 1-phosphate receptor 1. The data set is described as follows: Agonist activity at human S1P1 receptor transfected in CHO cells incubated for 10 to 15 mins prior to GTPgamma35S addition measured after 120 mins by GTPgamma35S binding assay. The class given is functional, cell-based.
In data set [4] the target is T1, Sphingosine 1-phosphate receptor 3. As to the kind of experiment: Agonist activity at human S1P3 receptor transfected in CHO cells at 10 uM incubated for 10 to 15 mins prior to GTPgamma35S addition measured after 120 mins by GTPgamma35S binding assay relative to S1P. The class given is functional, cell-based.
In another data set the test system is Caco-2. As to the kind of experiment: Permeability across human Caco2 cells at 0.5 to 50 uM. The class given is ADME, cell-based. To be noted: caco-2, 50 µM. In general terms: Caco-2 cells form a polarised layer with tight junctions and transporters.
Data set [5] can be described thus: Plasma protein binding in monkey. The format is ADME, cell-free, Macaca mulatta. The settings on record: rhesus monkey, read-out: PPB.
For data set [6], the species on record is Rattus norvegicus. As to the kind of experiment: Drug excretion in rat. The format is ADME, organism-based. The settings on record: in vivo.
The target in a further data set is hERG (KCNH2) (Homo sapiens, UniProt Q12809). The data set is described as follows: Inhibition of human ERG channel at 25 uM.
Sequence of hERG (KCNH2) (Q12809 whole entry): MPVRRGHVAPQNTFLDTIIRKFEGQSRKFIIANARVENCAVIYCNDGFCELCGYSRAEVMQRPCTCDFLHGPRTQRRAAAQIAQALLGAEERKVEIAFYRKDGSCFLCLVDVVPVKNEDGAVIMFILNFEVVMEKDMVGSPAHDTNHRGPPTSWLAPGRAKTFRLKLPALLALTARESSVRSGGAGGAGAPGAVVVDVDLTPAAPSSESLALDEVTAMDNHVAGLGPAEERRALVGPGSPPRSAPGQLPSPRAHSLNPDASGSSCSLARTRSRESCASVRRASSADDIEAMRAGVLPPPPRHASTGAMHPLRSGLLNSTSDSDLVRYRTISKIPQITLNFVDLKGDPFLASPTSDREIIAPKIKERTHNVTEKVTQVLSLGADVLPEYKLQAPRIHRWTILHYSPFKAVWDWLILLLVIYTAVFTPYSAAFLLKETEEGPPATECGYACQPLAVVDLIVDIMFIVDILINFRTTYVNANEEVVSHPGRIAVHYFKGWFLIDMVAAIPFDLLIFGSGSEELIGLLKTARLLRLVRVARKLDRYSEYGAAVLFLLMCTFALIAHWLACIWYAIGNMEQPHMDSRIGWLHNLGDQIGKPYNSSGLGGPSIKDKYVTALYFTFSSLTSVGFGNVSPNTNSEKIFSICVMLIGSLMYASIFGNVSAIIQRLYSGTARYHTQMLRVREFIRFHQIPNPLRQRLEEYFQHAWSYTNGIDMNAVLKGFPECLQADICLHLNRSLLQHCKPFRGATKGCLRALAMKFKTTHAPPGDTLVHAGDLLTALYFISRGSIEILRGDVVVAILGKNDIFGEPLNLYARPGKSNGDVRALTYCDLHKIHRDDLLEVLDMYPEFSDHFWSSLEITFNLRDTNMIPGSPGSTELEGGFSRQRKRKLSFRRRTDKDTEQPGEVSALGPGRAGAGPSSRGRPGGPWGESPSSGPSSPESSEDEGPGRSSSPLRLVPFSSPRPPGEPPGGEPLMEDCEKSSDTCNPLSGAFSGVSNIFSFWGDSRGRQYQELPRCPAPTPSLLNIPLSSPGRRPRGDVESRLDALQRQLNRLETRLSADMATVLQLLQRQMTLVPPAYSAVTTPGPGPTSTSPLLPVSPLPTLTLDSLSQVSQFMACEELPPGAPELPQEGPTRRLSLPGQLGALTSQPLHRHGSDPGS
For data set [7], the system named is Rattus norvegicus. As to the kind of experiment: Reduction in peripheral lymphocyte count in Lewis rat at 1 mg/kg, po after 8 hrs. The format is functional. More on the design: scale not given: the % may be the effect or the level left.
The nature of data set [8]: Clearance in rat. To be noted: in vivo. The format is ADME, organism-based.
Data set [9] in a line: Volume of distribution at steady state in monkey. The format is ADME, organism-based, Macaca mulatta. To be noted: rhesus monkey, in vivo; read-out: Vdss.
The nature of data set [10]: Tmax in Lewis rat at 1 mg/kg, po after 8 hrs. The class given is ADME, organism-based. More on the design: dose 1 mg/kg, route oral. The settings on record: in vivo.
The nature of data set [11]: Plasma protein binding in human. The class given is ADME, cell-free. To be noted: read-out: PPB.
The nature of data set [12]: Oral bioavailability in rat. The class given is ADME, organism-based. The settings on record: in vivo.
Data set [13] concerns Rattus norvegicus. The data set is described as follows: Reduction in peripheral lymphocyte count in Lewis rat at 1 mg/kg, po after 48 hrs. The class given is functional, organism-based. More on the design: dose 1 mg/kg.
Data set [14] is described as follows: Plasma protein binding in dog. The format is ADME, cell-free, Canis lupus familiaris. The settings on record: read-out: PPB.
Data set [15] in a line: Clearance in monkey. The format is ADME, organism-based, Macaca mulatta. The settings on record: rhesus monkey, in vivo.
Data set [16] has as its system Rattus norvegicus. As to the kind of experiment: Reduction in peripheral lymphocyte count in po dosed Lewis rat after 6 hrs. The class given is functional.
The nature of data set [17]: Volume of distribution at steady state in rat. The settings on record: in vivo, read-out: Vdss. The format is ADME, organism-based.
Data set [18] can be described thus: Terminal half life in monkey. The format is ADME, organism-based, Macaca mulatta. To be noted: rhesus monkey, in vivo; read-out: beta t1/2 (converted).
Data set [19] can be described thus: Plasma protein binding in rat. The class given is ADME, cell-free. To be noted: read-out: PPB.
Data set [20] is described as follows: Oral bioavailability in monkey. The class given is ADME, organism-based, Macaca mulatta. The settings on record: rhesus monkey, in vivo.
Data set [21] can be described thus: Drug absorption in rat. The format is ADME, organism-based. To be noted: in vivo, read-out: Fabs.
Data set [22] can be described thus: Terminal half life in rat. The class given is ADME, organism-based. To be noted: in vivo, read-out: beta t1/2 (converted).
Data set [23] is described as follows: Elimination half life in po dosed mouse. The settings on record: in vivo, read-out: beta t1/2. The class given is ADME, organism-based.
For a further data set, the system named is Mus musculus. The data set is described as follows: Volume of distribution at steady state in po dosed mouse. The class given is ADME, organism-based. To be noted: in vivo.

Calls of active or inactive are those of the source. The rule behind the calls is not given here.

T1 sequence (Q99500 whole entry): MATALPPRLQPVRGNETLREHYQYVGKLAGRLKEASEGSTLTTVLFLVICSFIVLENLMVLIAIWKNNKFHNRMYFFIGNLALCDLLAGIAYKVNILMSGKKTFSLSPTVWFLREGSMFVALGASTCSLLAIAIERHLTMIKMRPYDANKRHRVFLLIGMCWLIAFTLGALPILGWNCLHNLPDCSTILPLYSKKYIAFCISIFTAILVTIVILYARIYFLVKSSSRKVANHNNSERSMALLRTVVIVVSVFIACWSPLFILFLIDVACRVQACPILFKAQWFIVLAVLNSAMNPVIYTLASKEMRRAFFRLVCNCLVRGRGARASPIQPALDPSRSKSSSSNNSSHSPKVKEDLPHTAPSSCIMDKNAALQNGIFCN

Broadly, the EC50 is the concentration giving half of the maximal effect. For orientation: Emax means the maximal effect, on the per cent scale that the assay sets. In the case of `CCc1cc(/C(C)=N/OCc2ccc(C3CCCCC3)c(C(F)(F)F)c2)ccc1CNCCC(=O)O`, the half-maximal effective concentration (EC50) in data set [1] worked out at 7200 nM; in [3], 0.7 nM. The Emax is 92% in data set [2] and 43% in data set [4].

On to `C/C(=N\OCc1ccc(C2CCCCC2)c(C(F)(F)F)c1)c1ccc(CNCCC(=O)O)s1`, for which the EC50 was 4000 nM in data set [1] and 2.2 nM in data set [3]. The results for the Emax in [2] and in data set [4] were 104% and 79%, respectively.

Take `C/C(=N\OCc1ccc(-c2ccc(C)cc2)cc1)c1ccc(CNCCC(=O)O)cc1`: a half-maximal effect in data set [3] (EC50) was put at 640 nM.

`C/C(=N\OCc1ccc(-c2ccco2)c(C(F)(F)F)c1)c1ccc(CNCCC(=O)O)cc1`: the EC50 was 3000 nM in data set [1] and 15 nM in [3].

With `C/C(=N\OCc1ccc(C2CCCCC2)c(C(F)(F)F)c1)c1ccc(CNCCC(=O)O)cc1`, the EC50 was 1500 nM in data set [1] and 0.3 nM in data set [3].

As for `C/C(=N\OCc1ccc(C2CCCCC2)c(C(F)(F)F)c1)c1ccc(CNCCC(=O)O)o1`, the EC50 in data set [1] is 2500 nM; in data set [3], 17 nM. Further, the Emax in data set [2] turned out to be 100%; in [4], 62%.

As to `C/C(=N\OCc1ccc(-c2cccs2)c(C(F)(F)F)c1)c1ccc(CNCCC(=O)O)cc1`, the half-maximal effective concentration (EC50) in data set [1] was determined as 5900 nM; in data set [3], 18 nM.

`C/C(=N\OCc1ccc(-c2ccccc2)cc1F)c1ccc(CNCCC(=O)O)cc1`: the response in [3] was half-maximal at 120 nM (EC50).

In the case of `C/C(=N\OCc1ccc(-c2ccccc2)cc1)c1ccc(CNCCC(=O)O)cc1`, the EC50 in data set [3] came out at 300 nM.

In turn, `COc1ccc(-c2ccc(CO/N=C(\C)c3ccc(CNCCC(=O)O)cc3)cc2)cc1` displayed an EC50 in [3] of 1500 nM.

For the compound `C/C(=N\OCc1ccc(C2CCCCC2)c(C(F)(F)F)c1)c1ccc(CNCCC(=O)O)c(Cl)c1`, the EC50 in data set [1] came to 1900 nM; in data set [3], 0.6 nM. Besides, the Emax in data set [2] was 106%; in data set [4], 50%.

On to `C/C(=N\OCc1ccc(-c2ccccc2)cc1C(F)(F)F)c1ccc(CNCCC(=O)O)cc1`, for which the Emax entry in data set [2] was “inactive”. Also, the EC50 in data set [3] turned out to be 10000 nM.

On to `C/C(=N\OCc1ccc(-c2ccccc2F)c(C(F)(F)F)c1)c1ccc(CNCCC(=O)O)cc1`, for which, in data set [3], the half-maximal effective concentration (EC50) came to 8 nM.

For the compound `C/C(=N\OCc1ccc(C2CCCCC2)c(C(F)(F)F)c1)c1ccc(CNCCC(=O)O)c(Br)c1`, the EC50 in data set [1] came out at 1100 nM; in data set [3], 0.4 nM. The Emax was found to be 85% in data set [2] and 65% in data set [4].

`C/C(=N\OCc1ccc(C2CCCCC2)c(C(F)(F)F)c1)c1ccc(CNCCC(=O)O)c(F)c1`: the EC50 in data set [1] came out at 2200 nM; in [3], 0.3 nM. The Emax in data set [2] amounted to 105%; in data set [4], 61%.

As to `C/C(=N\OCc1ccc(C2CCCCC2)c(C(F)(F)F)c1)c1ccc(CNCCC(=O)O)nc1`, the EC50 was found to be 4300 nM in data set [1] and 2.6 nM in [3]. Moreover, the maximum response (Emax) was found to be 86% in data set [2] and 44% in data set [4].

Broadly, the inhibition is the change of the read-out against control, counted positive when it falls. As a reminder, the clearance is a measure of how efficiently the substance is removed, as volume per time. A word on the Tmax: it is the time at which the peak concentration occurs. By bioavailability is commonly meant the share of a dose that reaches the circulation, judged against a reference dose that is usually intravenous. One may read the ED50 as the midpoint of the dose-response relation. As for `CCc1cc(/C(C)=N/OCc2ccc(C3CCCCC3)c(C(F)(F)F)c2)ccc1CN1CC(C(=O)O)C1` [SIPONIMOD], the permeability result in the data set with Caco-2 is given as “permeable”. Besides, the fraction unbound in [5], in data set [11], in [14] and in [19] was less than 0.001 in each case. Besides, in the data set filed under Rattus norvegicus [6], the Drug excretion result is recorded as “Not Active”. For the same compound, on hERG (KCNH2), the inhibition at 25 µM was less than 10%. The Activity in the data set on Rattus norvegicus [7] is given as 88%. Further, the clearance in [8] was 6 mL/min/kg; in data set [15] it was 1.63 mL/min/kg. In data set [1], this compound registered an EC50 of 5000 nM. Moreover, the Vd amounted to 2.12 L/kg in data set [9] and 2.15 L/kg in data set [17]. The Tmax in [10] is 8 h. Besides, the figures for the Emax in data set [2] and in data set [4] were 91% and 55%, respectively. Moreover, the bioavailability was 50% in data set [12] and 71% in [20]. The outcome in the data set with Rattus norvegicus [13] was inactive. The compound also had an ED50 in the data set with Rattus norvegicus [16] of 0.14 mg/kg. The half-life in [18] was 19 h; in [22], 6 h. In addition, the Fa in data set [21] was 58%.

For `C/C(=N\OCc1ccc(C2CCCC2)c(C(F)(F)F)c1)c1ccc(CNCCC(=O)O)cc1`, the EC50 in [1] is 1600 nM; in [3] it was 0.6 nM.

`COc1ccccc1-c1ccc(CO/N=C(\C)c2ccc(CNCCC(=O)O)cc2)cc1` registered a concentration giving a half-maximal response (EC50) in data set [3] of 1400 nM.

`C/C(=N\OCc1ccc(-c2ccc(F)c(F)c2)c(C(F)(F)F)c1)c1ccc(CNCCC(=O)O)cc1`: in data set [3], the EC50 worked out at 16 nM.

The compound `C/C(=N\OCc1ccc(-c2ccccc2)c(C(F)(F)F)c1)c1ccc(CNCCC(=O)O)cc1` yielded a concentration for a half-maximal effect (EC50) in data set [3] of 9 nM.

With `C/C(=N\OCc1ccc(-c2ccc(F)cc2)cc1)c1ccc(CNCCC(=O)O)cc1`, the EC50 in data set [3] stood at 210 nM.

As to `C/C(=N\OCc1ccc(C2CCCCC2)c(C(F)(F)F)c1)c1ccc(CNCCC(=O)O)cn1`, the EC50 in data set [1] amounted to 2600 nM; in data set [3] it was 1.4 nM. The Emax in data set [2] was determined as 92%; in data set [4] it was 53%.

In the case of `C/C(=N\OCc1ccc(C2CCCCC2)c(C(F)(F)F)c1)c1ccc(CNCCC(=O)O)c(C2CC2)c1`, the figures for the EC50 in [1] and in data set [3] were 1300 nM and 0.4 nM, respectively. Also, the Emax in data set [2] stood at 98%; in data set [4] it was 63%.

In the case of `C/C(=N\OCc1ccc(-c2ccc(F)cc2)c(C(F)(F)F)c1)c1ccc(CNCCC(=O)O)cc1`, the EC50 in data set [3] was 11 nM.

With `C/C(=N\OCc1ccc(-c2ccccc2)cc1)c1ccc(CCC(N)(CO)CO)cc1`, the half-life in [23] was more than 30 h. The Vdss with Mus musculus was 36.9 L/kg.

For `C/C(=N\OCc1ccc(C2CCCCC2)c(C(F)(F)F)c1)c1ccc(CNCCC(=O)O)c(C)c1`, the EC50 in data set [1] was 5900 nM; in data set [3], 2 nM. Besides, the Emax in data set [2] was 94%; in [4], 159%.

With `C/C(=N\OCc1ccc(-c2ccccc2C(F)(F)F)cc1)c1ccc(CNCCC(=O)O)cc1`, in data set [3], a half-maximal response (EC50) required 1700 nM.

Take `C/C(=N\OCc1ccc(C2CCCCC2)c(C(F)(F)F)c1)c1ccc(CN2CC(C(=O)O)C2)c(C)c1`: the EC50 was 3200 nM in [1] and 1.6 nM in data set [3]. Also, the Emax amounted to 80% in data set [2] and 127% in data set [4].

In turn, `C/C(=N\OCc1ccc(-c2ccc(C(F)(F)F)cc2)cc1)c1ccc(CNCCC(=O)O)cc1` displayed an EC50 in [3] of 10000 nM.

Compound `C/C(=N\OCc1ccc(-c2ccc(C)cc2)c(C(F)(F)F)c1)c1ccc(CNCCC(=O)O)cc1` registered an EC50 in data set [3] of 94 nM.

Consider `C/C(=N\OCc1ccc(-c2ccccc2)c(F)c1)c1ccc(CNCCC(=O)O)cc1`, for which the half-maximal effective concentration (EC50) in data set [3] worked out at 61 nM.

The values are drawn from ChEMBL document CHEMBL2331139, “Discovery of BAF312 (Siponimod), a Potent and Selective S1P Receptor Modulator” (ACS Med Chem Lett, 2013).
